Assay results published in PubChem BioAssay AID248 (DTP/NCI, 2004).
Several values for one entry are separate records, joined by “and”; a condition that tells them apart may be missing. Equal values may be shown once. Toxic doses and inconclusive results are not listed.

Test system: L1210 leukemia ip in BDF1 mice, survival T/C
Experiment: NCI In Vivo Anticancer Drug Screen. Data for tumor model L1210 Leukemia (intraperitoneal) in B6D2F1 (BDF1) mice
Conditions: endpoint: mean survival time, higher = longer survival
In short: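 Read-out is survival time, reported as the treated-group measurement over the vehicle-control measurement.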

[1] = dose: 50.0 mg/kg/injection, schedule: Q01DX001 (ip), vehicle: carboxymethylcellulose (CMC)
[2] = dose: 100.0 mg/kg/injection, schedule: Q01DX001 (ip), vehicle: carboxymethylcellulose (CMC)
[3] = dose: 200.0 mg/kg/injection, schedule: Q01DX001 (ip), vehicle: carboxymethylcellulose (CMC)
[4] = dose: 400.0 mg/kg/injection, schedule: Q01DX001 (ip), vehicle: carboxymethylcellulose (CMC)
[5] = dose: 100.0 mg/kg/injection, schedule: Q01DX001 (ip), vehicle: acetone
[6] = dose: 200.0 mg/kg/injection, schedule: Q01DX001 (ip), vehicle: acetone
[7] = dose: 400.0 mg/kg/injection, schedule: Q01DX001 (ip), vehicle: acetone
[8] = dose: 100.0 mg/kg/injection, schedule: Q01DX009 (ip), vehicle: saline with Tween-80
[9] = dose: 100.0 mg/kg/injection, schedule: Q04DX003 (ip), vehicle: saline
[10] = dose: 200.0 mg/kg/injection, schedule: Q01DX009 (ip), vehicle: saline with Tween-80
[11] = dose: 400.0 mg/kg/injection, schedule: Q01DX009 (ip), vehicle: saline with Tween-80
[12] = dose: 100.0 mg/kg/injection, schedule: Q01DX009 (ip), vehicle: Klucel (hydroxypropylcellulose) (HPC)
[13] = dose: 100.0 mg/kg/injection, schedule: Q04DX003 (ip), vehicle: Klucel (hydroxypropylcellulose) (HPC)
[14] = dose: 200.0 mg/kg/injection, schedule: Q04DX003 (ip), vehicle: Klucel (hydroxypropylcellulose) (HPC)
[15] = dose: 400.0 mg/kg/injection, schedule: Q04DX003 (ip), vehicle: Klucel (hydroxypropylcellulose) (HPC)
[16] = dose: 100.0 mg/kg/injection, schedule: Q01DX001 (ip), vehicle: saline
[17] = dose: 100.0 mg/kg/injection, schedule: Q04DX003 (ip), vehicle: saline with Tween-80
[18] = dose: 200.0 mg/kg/injection, schedule: Q04DX003 (ip), vehicle: saline with Tween-80
[19] = dose: 400.0 mg/kg/injection, schedule: Q04DX003 (ip), vehicle: saline with Tween-80

Question: `Cc1ccc(N=Nc2c(O)ccc3ccccc23)cc1` was tested. Which T/C [1] did it give?
Answer: 91 % of control

Question: What about the T/C [2] of the same molecule?
Answer: 91 % of control

Question: And the T/C [3]?
Answer: 91 % of control

Question: What about the T/C [4] of the same molecule?
Answer: 91 % of control

Question: For `COC(C)(C)C(Br)C(=O)OCC(=O)c1ccc(Br)cc1` (stereo not given), which T/C [1] is on record?
Answer: 104 % of control

Question: What about the T/C [2] of the same molecule?
Answer: 108 % of control

Question: What about the T/C [3] of the same molecule?
Answer: 102 % of control

Question: What about the T/C [4] of the same molecule?
Answer: 102 % of control

Question: What does the source list for `CC[N+](CC)(CC)CCOc1cccc(OCC[N+](CC)(CC)CC)c1OCC[N+](CC)(CC)CC`?
Answer: T/C (dose: 5.0 mg/kg/injection, schedule: Q01DX001 (ip), vehicle: saline): 95 % of control; T/C (dose: 10.0 mg/kg/injection, schedule: Q01DX001 (ip), vehicle: saline): 98 % of control

Question: With `O=P(O)(c1cccc(Cl)c1)c1cccc(Cl)c1` as the molecule, how does the T/C [5] read?
Answer: 91 % of control

Question: What about the T/C (dose: 100.0 mg/kg/injection, schedule: Q04DX003 (ip), vehicle: acetone) of the same molecule?
Answer: 97 % of control

Question: What about the T/C [6] of the same molecule?
Answer: 96 % of control

Question: And the T/C (dose: 200.0 mg/kg/injection, schedule: Q04DX003 (ip), vehicle: acetone)?
Answer: 107 % of control

Question: And the T/C [7]?
Answer: 91 % of control

Question: What about the T/C (dose: 400.0 mg/kg/injection, schedule: Q04DX003 (ip), vehicle: acetone) of the same molecule?
Answer: 97 % of control

Question: `Cc1cc(=O)[nH]c2c(C)cc(-c3cc(C)c4[nH]c(=O)cc(C)c4c3)cc12` was tested. Which T/C [8] did it give?
Answer: 101 % of control

Question: And the T/C [9]?
Answer: 98 % of control

Question: What about the T/C [10] of the same molecule?
Answer: 97 % of control

Question: And the T/C (dose: 200.0 mg/kg/injection, schedule: Q04DX003 (ip), vehicle: saline)?
Answer: 91 % of control

Question: And the T/C [11]?
Answer: 92 % of control

Question: What about the T/C (dose: 400.0 mg/kg/injection, schedule: Q04DX003 (ip), vehicle: saline) of the same molecule?
Answer: 98 % of control

Question: How did the T/C (dose: 0.5 mg/kg/injection, schedule: Q01DX001 (ip), vehicle: carboxymethylcellulose (CMC)) turn out when `CC(OC(=O)CF)C(C)OC(=O)CF` (stereo not given) was run?
Answer: 110 % of control

Question: What about the T/C (dose: 1.0 mg/kg/injection, schedule: Q01DX001 (ip), vehicle: carboxymethylcellulose (CMC)) of the same molecule?
Answer: 94 % of control

Question: And the T/C (dose: 2.0 mg/kg/injection, schedule: Q01DX001 (ip), vehicle: carboxymethylcellulose (CMC))?
Answer: 108 % of control

Question: And the T/C (dose: 4.0 mg/kg/injection, schedule: Q01DX001 (ip), vehicle: carboxymethylcellulose (CMC))?
Answer: 100 % of control

Question: And the T/C (dose: 8.0 mg/kg/injection, schedule: Q01DX001 (ip), vehicle: carboxymethylcellulose (CMC))?
Answer: 108 % of control

Question: Which T/C (dose: 100.0 mg/kg/injection, schedule: Q04DX002 (ip), vehicle: saline) does the source give for `Nc1c(F)c(F)c(C(=O)O)c(F)c1F` here?
Answer: 94 % of control and 101 % of control

Question: What about the T/C (dose: 200.0 mg/kg/injection, schedule: Q04DX002 (ip), vehicle: saline) of the same molecule?
Answer: 97 % of control and 107 % of control

Question: And the T/C (dose: 800.0 mg/kg/injection, schedule: Q04DX002 (ip), vehicle: saline)?
Answer: 100 % of control

Question: How did the T/C [4] turn out when `O=c1[nH]c(=O)n(CCCc2ccccc2)cc1-c1ccccc1` was run?
Answer: 90 % of control

Question: With `COc1ccc(OC)c(NC(=O)Oc2ccccc2F)c1` as the molecule, how does the T/C (dose: 50.0 mg/kg/injection, schedule: Q01DX009 (ip), vehicle: Klucel (hydroxypropylcellulose) (HPC)) read?
Answer: 97 % of control

Question: What about the T/C [12] of the same molecule?
Answer: 93 % of control

Question: What about the T/C [13] of the same molecule?
Answer: 90 % of control

Question: What about the T/C [14] of the same molecule?
Answer: 93 % of control

Question: And the T/C [15]?
Answer: 92 % of control

Question: What does the source list for `O=NN(CCCl)C(=O)NC1CCCC1`?
Answer: T/C (dose: 3.0 mg/kg/injection, schedule: Q01DX001 (ip), vehicle: saline): 108 % of control; T/C (dose: 6.0 mg/kg/injection, schedule: Q01DX001 (ip), vehicle: saline): 108 % of control; T/C (dose: 12.0 mg/kg/injection, schedule: Q01DX001 (ip), vehicle: saline): 112 % of control; T/C (dose: 18.0 mg/kg/injection, schedule: Q01DX001 (ip), vehicle: saline): 118 % of control; T/C (dose: 25.0 mg/kg/injection, schedule: Q01DX001 (ip), vehicle: saline): 162 % of control; T/C (dose: 30.0 mg/kg/injection, schedule: Q01DX001 (ip), vehicle: saline): 222 % of control; T/C (dose: 44.0 mg/kg/injection, schedule: Q01DX001 (ip), vehicle: saline): 302 % of control; T/C (dose: 50.0 mg/kg/injection, schedule: Q01DX001 (ip), vehicle: saline): 328 % of control; T/C (dose: 67.0 mg/kg/injection, schedule: Q01DX001 (ip), vehicle: saline): 278 % of control; T/C (dose: 93.0 mg/kg/injection, schedule: Q01DX001 (ip), vehicle: saline): 243 % of control; T/C [16]: 224 % of control and 333 % of control; T/C (dose: 150.0 mg/kg/injection, schedule: Q01DX001 (ip), vehicle: saline): 295 % of control; T/C (dose: 187.0 mg/kg/injection, schedule: Q01DX001 (ip), vehicle: saline): 197 % of control; T/C (dose: 375.0 mg/kg/injection, schedule: Q01DX001 (ip), vehicle: saline): 283 % of control; T/C (dose: 500.0 mg/kg/injection, schedule: Q01DX001 (ip), vehicle: saline): 327 % of control

Question: With `CCCCN(CCCC)CC(=O)Nc1ccc(C(=O)OCC(C)C)cc1` as the molecule, how does the T/C (dose: 20.0 mg/kg/injection, schedule: Q01DX Z (ip), vehicle: saline) read?
Answer: 97 % of control

Question: And the T/C (dose: 30.0 mg/kg/injection, schedule: Q01DX Z (ip), vehicle: saline)?
Answer: 98 % of control

Question: And the T/C (dose: 45.0 mg/kg/injection, schedule: Q01DX Z (ip), vehicle: saline)?
Answer: 106 % of control

Question: What about the T/C (dose: 68.0 mg/kg/injection, schedule: Q01DX Z (ip), vehicle: saline) of the same molecule?
Answer: 97 % of control

Question: With `COP1(=O)OCC(C)CO1` (stereo not given) as the molecule, how does the T/C [16] read?
Answer: 102 % of control

Question: And the T/C (dose: 200.0 mg/kg/injection, schedule: Q01DX001 (ip), vehicle: saline)?
Answer: 93 % of control

Question: And the T/C (dose: 400.0 mg/kg/injection, schedule: Q01DX001 (ip), vehicle: saline)?
Answer: 98 % of control

Question: What does the source list for `COc1ccc(C)cc1NC(=S)NC(=O)c1cccc([N+](=O)[O-])c1`?
Answer: T/C (dose: 100.0 mg/kg/injection, schedule: Q01DX001 (ip), vehicle: saline with Tween-80): 93 % of control; T/C [8]: 100 % of control and 89 % of control; T/C (dose: 100.0 mg/kg/injection, schedule: Q04DX002 (ip), vehicle: saline with Tween-80): 87 % of control; T/C [17]: 101 % of control; T/C (dose: 200.0 mg/kg/injection, schedule: Q01DX001 (ip), vehicle: saline with Tween-80): 89 % of control; T/C [10]: 96 % of control and 97 % of control; T/C (dose: 200.0 mg/kg/injection, schedule: Q04DX002 (ip), vehicle: saline with Tween-80): 97 % of control; T/C [18]: 93 % of control; T/C [11]: 92 % of control and 101 % of control; T/C (dose: 400.0 mg/kg/injection, schedule: Q04DX002 (ip), vehicle: saline with Tween-80): 90 % of control; T/C [19]: 88 % of control

Question: `Nc1ncnc2c1ncn2C1OC(C(=O)NO)C(O)C1O` (stereo not given) was tested. Which T/C (dose: 0.78 mg/kg/injection, schedule: Q01DX009 (ip), vehicle: saline) did it give?
Answer: 106 % of control

Question: And the T/C (dose: 1.56 mg/kg/injection, schedule: Q01DX005 (ip), vehicle: saline)?
Answer: 104 % of control

Question: What about the T/C (dose: 1.56 mg/kg/injection, schedule: Q01DX009 (ip), vehicle: saline) of the same molecule?
Answer: 123 % of control

Question: What about the T/C (dose: 3.12 mg/kg/injection, schedule: Q01DX005 (ip), vehicle: saline) of the same molecule?
Answer: 121 % of control

Question: For `O=[N+]([O-])c1ccc2[nH]c3c(c2c1)CSCC3`, which T/C [8] is on record?
Answer: 91 % of control

Question: And the T/C [17]?
Answer: 100 % of control

Question: What about the T/C [10] of the same molecule?
Answer: 88 % of control

Question: What about the T/C [18] of the same molecule?
Answer: 100 % of control

Question: And the T/C [11]?
Answer: 94 % of control

Question: And the T/C [19]?
Answer: 95 % of control

Question: With `NCCCc1nc(N)nc(N)c1-c1ccc(Cl)cc1` as the molecule, how does the T/C (dose: 25.0 mg/kg/injection, schedule: Q04DX003 (ip), vehicle: saline) read?
Answer: 104 % of control

Question: What about the T/C (dose: 50.0 mg/kg/injection, schedule: Q04DX003 (ip), vehicle: saline) of the same molecule?
Answer: 110 % of control

Question: What about the T/C [9] of the same molecule?
Answer: 103 % of control

Question: How did the T/C [5] turn out when `Nc1c2c(=O)[nH]c(=O)c2c(N)c2c(=O)c3ccccc3c(=O)c12` was run?
Answer: 93 % of control

Question: What about the T/C [6] of the same molecule?
Answer: 103 % of control

Question: And the T/C [7]?
Answer: 103 % of control

Question: `CC(=O)NC1CCC(CC2CCCCC2)CC1` (stereo not given) was tested. Which T/C [12] did it give?
Answer: 101 % of control

Question: And the T/C [13]?
Answer: 93 % of control and 102 % of control

Question: And the T/C (dose: 200.0 mg/kg/injection, schedule: Q01DX009 (ip), vehicle: Klucel (hydroxypropylcellulose) (HPC))?
Answer: 116 % of control

Question: What about the T/C [14] of the same molecule?
Answer: 103 % of control and 93 % of control

Question: What about the T/C [15] of the same molecule?
Answer: 114 % of control and 93 % of control
